Among the test systems are Escherichia coli; Staphylococcus aureus; Pseudomonas aeruginosa.
What all share (test): ≥ marks a high value that may be exact or a test limit, other limits are often not marked, values filed in µg/mL are converted to µM
In assay [1] the test system is Escherichia coli ATCC 25922.
In assay [2] the test system is Staphylococcus epidermidis ATCC 12228.
Assay [3] concerns Staphylococcus aureus ATCC 25923.
For assay [4], the system named is Pseudomonas aeruginosa ATCC 27853.

Values after ≈ are worked out from the molar mass of the structure shown.

As a reminder, the MIC is the least concentration at which growth counts as inhibited. High values mean weaker potency, low ones greater potency. Turning to `CC[C@H](C)[C@H](NC(=O)[C@H](CCCCN)NC(=O)[C@@H]1CCCN1C(=O)[C@@H](NC(=O)[C@H](CC(C)C)NC(=O)[C@H](C)NC(=O)[C@H](Cc1ccccc1)NC(=O)[C@H](Cc1ccccc1)NC(=O)CN)[C@@H](C)CC)C(=O)N[C@H](C(=O)N[C@@H](CO)C(=O)N[C@@H](CO)C(=O)N1CCC[C@H]1C(=O)N[C@@H](CC(C)C)C(=O)N[C@@H](Cc1ccccc1)C(=O)N[C@@H](CCCCN)C(=O)N[C@H](C(=O)N[C@@H](CC(C)C)C(N)=O)[C@@H](C)O)[C@@H](C)CC` [GFFALIPKIISSPLFKTL], the MIC in the assay with Escherichia coli turned out to be 17.1 µM (≈ 34 µg/mL).
On to `CC[C@H](C)[C@H](NC(=O)CN)C(=O)N[C@@H](CCCCN)C(=O)N[C@@H](CCCCN)C(=O)N[C@@H](Cc1c[nH]c2ccccc12)C(=O)N[C@@H](CC(C)C)C(=O)N[C@@H](Cc1cnc[nH]1)C(=O)N[C@@H](CO)C(=O)N1CCC[C@H]1C(=O)N[C@@H](CCCCN)C(=O)N[C@@H](CCCCN)C(=O)N[C@@H](Cc1ccccc1)C(=O)NCC(=O)N[C@@H](CCCCN)C(=O)N[C@@H](CCCCN)C(=O)N[C@@H](Cc1ccccc1)C(=O)N1CCC[C@H]1C(=O)N[C@@H](CCCCN)C(=O)N[C@@H](CCCCN)C(=O)N[C@H](C(=O)N[C@@H](CCSC)C(=O)N[C@@H](CC(N)=O)C(=O)N[C@@H](CO)C(N)=O)[C@@H](C)CC` [GIKKWLHSPKKFGKKFPKKIMNS], for which the MIC in assay [1] is over 80 µM; in assay [2], 10 µM (≈ 27.3 µg/mL).
Taken in the same sequence, the figures for `CC[C@H](C)[C@H](NC(=O)CN)C(=O)N[C@@H](CCCCN)C(=O)N[C@@H](CCCCN)C(=O)N[C@@H](Cc1c[nH]c2ccccc12)C(=O)N1CCC[C@H]1C(=O)N[C@@H](Cc1cnc[nH]1)C(=O)N[C@@H](CCCCN)C(=O)N1CCC[C@H]1C(=O)N[C@@H](CCCCN)C(=O)N[C@@H](CCCCN)C(=O)N[C@@H](Cc1ccccc1)C(=O)NCC(=O)N[C@@H](CCCCN)C(=O)N[C@@H](CCCCN)C(=O)N[C@@H](Cc1ccccc1)C(=O)N[C@H](C(=O)N[C@@H](CCCCN)C(=O)N[C@@H](CCCCN)C(=O)N[C@H](C(=O)N[C@@H](CCCCN)C(=O)N[C@@H](CC(N)=O)C(=O)N[C@@H](CO)C(N)=O)[C@@H](C)CC)C(C)C` [GIKKWPHKPKKFGKKFVKKIKNS] were 40 µM (≈ 110 µg/mL) and 10 µM (≈ 27.5 µg/mL).
Taken in the same sequence, the figures for `CC[C@H](C)[C@H](NC(=O)CN)C(=O)N[C@@H](CCCCN)C(=O)N[C@@H](CCCCN)C(=O)N[C@@H](Cc1c[nH]c2ccccc12)C(=O)N1CCC[C@H]1C(=O)N[C@@H](Cc1cnc[nH]1)C(=O)N[C@@H](CO)C(=O)N1CCC[C@H]1C(=O)N[C@@H](CCCCN)C(=O)N[C@@H](CCCCN)C(=O)N[C@@H](Cc1ccccc1)C(=O)NCC(=O)N[C@@H](CCCCN)C(=O)N[C@@H](CCCCN)C(=O)N[C@@H](Cc1ccccc1)C(=O)N[C@H](C(=O)N[C@@H](CCCCN)C(=O)N[C@@H](CCCCN)C(=O)N[C@H](C(=O)N[C@@H](CCSC)C(=O)N[C@@H](CC(N)=O)C(=O)N[C@@H](CO)C(N)=O)[C@@H](C)CC)C(C)C` [GIKKWPHSPKKFGKKFVKKIMNS] were 10 µM (≈ 27.1 µg/mL) and 10 µM (≈ 27.1 µg/mL).
Regarding `CC[C@H](C)[C@H](NC(=O)[C@H](CCCCN)NC(=O)[C@H](CC(C)C)NC(=O)CNC(=O)[C@H](C)NC(=O)[C@H](CCCCN)NC(=O)[C@H](CC(C)C)NC(=O)[C@H](C)NC(=O)[C@H](CCCCN)NC(=O)CNC(=O)[C@H](CC(C)C)NC(=O)[C@H](Cc1ccccc1)NC(=O)[C@H](CO)NC(=O)[C@H](C)NC(=O)[C@H](CC(C)C)NC(=O)CN)C(=O)NCC(=O)N[C@@H](CO)C(=O)N[C@@H](Cc1cnc[nH]1)C(=O)N[C@@H](CC(C)C)C(=O)N[C@@H](CC(C)C)C(=O)NCC(=O)NCC(=O)N[C@@H](C)C(=O)N1CCC[C@H]1C(=O)N[C@@H](CCC(N)=O)C(=O)N[C@@H](CCC(N)=O)C(=O)O` [GLASFLGKALKAGLKIGSHLLGGAPQQ], the MIC came to 25 µM (≈ 65.8 µg/mL) against Escherichia coli and 6 µM (≈ 15.8 µg/mL) in the assay with Staphylococcus aureus.
`CC[C@H](C)[C@H](NC(=O)[C@H](CCCN=C(N)N)NC(=O)[C@H](CCCCN)NC(=O)[C@H](CC(C)C)NC(=O)[C@H](CC(C)C)NC(=O)CN)C(=O)N[C@@H](CCCCN)C(=O)N[C@H](C(=O)N[C@@H](C)C(=O)N[C@@H](CC(C)C)C(N)=O)[C@@H](C)O` [GLLKRIKTAL]: the MIC in assay [1] is 44 µM (≈ 49 µg/mL); in assay [3], over 27.9 µM.
`CC[C@H](C)[C@H](NC(=O)[C@@H](NC(=O)[C@H](Cc1ccccc1)NC(=O)[C@H](CCCCN)NC(=O)[C@H](C)NC(=O)[C@H](CC(C)C)NC(=O)[C@H](CCCCN)NC(=O)CNC(=O)[C@H](CC(C)C)NC(=O)[C@@H](NC(=O)[C@@H](NC(=O)CNC(=O)[C@H](C)NC(=O)[C@H](C)NC(=O)[C@@H](NC(=O)[C@H](C)NC(=O)[C@H](CCSC)NC(=O)CN)[C@@H](C)O)[C@@H](C)O)[C@@H](C)O)C(C)C)C(=O)NCC(=O)N[C@@H](C)C(=O)N[C@H](C(N)=O)C(C)C` [GMATAAGTTLGKLAKFVIGAV]: the MIC against Escherichia coli and against Staphylococcus aureus was over 80 µM in each case.
As for `CC[C@H](C)[C@H](NC(=O)[C@H](Cc1ccc(O)cc1)NC(=O)[C@H](CCC(N)=O)NC(=O)[C@H](CC(C)C)NC(=O)[C@H](C)NC(=O)[C@H](CCCCN)NC(=O)[C@H](CCCCN)NC(=O)[C@H](CCSC)NC(=O)[C@H](CCCCN)NC(=O)[C@@H](N)CCCCN)C(=O)N[C@@H](CCCCN)C(=O)N[C@@H](CC(C)C)C(=O)N[C@@H](CC(C)C)C(=O)N[C@@H](CCCCN)C(=O)N[C@@H](CCC(=O)O)C(N)=O` [KKMKKALQYIKLLKE], the MIC in assay [1] and in assay [4] was over 100 µM each time.
With `CC(C)C[C@H](NC(=O)[C@H](CO)NC(=O)[C@@H](N)CCCCN)C(=O)N[C@@H](CCCN=C(N)N)C(=O)N[C@@H](CCCN=C(N)N)C(=O)N[C@H](C(=O)N[C@@H](Cc1c[nH]c2ccccc12)C(=O)N[C@@H](CCCN=C(N)N)C(=O)N[C@@H](CO)C(=O)N[C@@H](Cc1c[nH]c2ccccc12)C(=O)N[C@@H](CCCN=C(N)N)C(N)=O)C(C)C` [KSLRRVWRSWR], the MIC in assay [1] was determined as 30 µM (≈ 45.9 µg/mL); in assay [3], 60 µM (≈ 91.7 µg/mL); in assay [4], 40 µM (≈ 61.2 µg/mL).
The compound `CC[C@H](C)[C@H](NC(=O)[C@H](Cc1ccccc1)NC(=O)[C@H](CO)NC(=O)[C@H](CC(N)=O)NC(=O)[C@H](Cc1c[nH]c2ccccc12)NC(=O)[C@@H](N)CCCCN)C(=O)N[C@@H](CCCCN)C(=O)N[C@@H](CCCCN)C(=O)N[C@@H](CC(C)C)C(=O)N[C@H](C(=O)N[C@@H](CO)C(=O)N[C@@H](CCCCN)C(=O)N[C@@H](Cc1ccccc1)C(=O)N[C@@H](CC(C)C)C(=O)N[C@@H](Cc1cnc[nH]1)C(=O)N[C@@H](CO)C(=O)N[C@@H](C)C(=O)N[C@@H](CCCCN)C(=O)N[C@@H](CCCCN)C(=O)N[C@@H](Cc1ccccc1)C(N)=O)[C@@H](C)O` [KWNSFIKKLTSKFLHSAKKF] had an MIC against Pseudomonas aeruginosa of 5.13 µM (≈ 12.5 µg/mL). That is a single-digit micromolar value.
Regarding `CC[C@H](C)[C@H](NC(=O)CNC(=O)[C@H](CO)NC(=O)[C@H](CCCN=C(N)N)NC(=O)[C@@H](NC(=O)CNC(=O)[C@H](Cc1c[nH]c2ccccc12)NC(=O)[C@H](CC(C)C)NC(=O)[C@H](CC(=O)O)NC(=O)[C@@H](NC(=O)[C@H](CCCCN)NC(=O)[C@H](CC(C)C)NC(=O)[C@@H](N)CCC(N)=O)C(C)C)[C@@H](C)O)C(N)=O` [QLKVDLWGTRSGI], the MIC in assay [1], in assay [3] and in assay [4] was over 100 µM each time.
As to `CSCC[C@H](NC(=O)[C@H](CCCCN)NC(=O)[C@H](CCCCN)NC(=O)[C@H](CCCCN)NC(=O)[C@H](CCCN=C(N)N)NC(=O)[C@H](CCCN=C(N)N)NC(=O)[C@H](Cc1ccc(O)cc1)NC(=O)[C@@H](N)CCCN=C(N)N)C(=O)N[C@@H](CCCCN)C(=O)N[C@@H](CCCCN)C(=O)N[C@@H](C)C(N)=O` [RYRRKKKMKKA], the MIC in assay [1] and in assay [4] was over 100 µM each time.
Consider `NCCCC[C@H](NC(=O)[C@H](CCCCN)NC(=O)[C@H](CCCCN)NC(=O)[C@H](CCCN=C(N)N)NC(=O)[C@H](CCCN=C(N)N)NC(=O)[C@H](Cc1ccc(O)cc1)NC(=O)[C@@H](N)CCCN=C(N)N)C(N)=O` [RYRRKKK], for which the MIC in assay [1] and in assay [4] was over 100 µM throughout.
For the compound `CC(C)C[C@H](NC(=O)[C@H](CCCCN)NC(=O)CNC(=O)[C@@H](N)CO)C(=O)N[C@@H](CS)C(=O)N[C@@H](CS)C(=O)N[C@@H](CCCN=C(N)N)C(=O)N[C@@H](CCCN=C(N)N)C(=O)N[C@@H](CCCCN)C(=O)N[C@@H](CCCCN)C(N)=O` [SGKLCCRRKK], the MIC in assay [3] and in assay [4] was over 100 µM each time.
As to `CC(C)C[C@H](NC(=O)[C@H](Cc1ccccc1)NC(=O)[C@@H]1CCCN1C(=O)[C@H](Cc1ccc(O)cc1)NC(=O)[C@H](Cc1ccc(O)cc1)NC(=O)[C@H](Cc1ccc(O)cc1)NC(=O)[C@@H]1CCCN1C(=O)[C@H](Cc1ccccc1)NC(=O)[C@H](CCCN=C(N)N)NC(=O)[C@H](CCCN=C(N)N)NC(=O)[C@@H](N)C(C)C)C(=O)N[C@@H](CCCN=C(N)N)C(=O)N[C@@H](CCCN=C(N)N)C(N)=O` [VRRFPYYYPFLRR], the MIC against Escherichia coli stood at 27.3 µM (≈ 50 µg/mL); in assay [1], 22.6 µM (≈ 41.5 µg/mL); against Staphylococcus aureus it was 12.2 µM (≈ 22.3 µg/mL).
In assay [2], `CC[C@H](C)[C@H](NC(=O)CNC(=O)[C@H](CC(C)C)NC(=O)[C@@H](NC(=O)[C@@H](N)Cc1ccc(O)cc1)[C@@H](C)O)C(=O)N[C@@H](CCCCN)C(=O)N[C@H](C(=O)N[C@@H](CC(C)C)C(=O)N[C@@H](Cc1c[nH]c2ccccc12)C(=O)N[C@@H](CO)C(=O)N[C@@H](C)C(=O)N[C@@H](Cc1ccc(O)cc1)C(=O)N[C@@H](CCCCN)C(=O)N[C@@H](Cc1cnc[nH]1)C(=O)O)[C@@H](C)CC` [YTLGIKILWSAYKH] displayed an MIC of 50 µM (≈ 84.7 µg/mL).

The values are drawn from DBAASP.
